ChEMBL document CHEMBL4002618, “Anticomplement triterpenoids from the roots of Ilex asprella” (2017)
Calls of active or inactive are those of the source. The rule behind the calls is not given here.

What was measured:
Erythrocyte [1] = assay: Anticomplement activity in sheep erythrocytes assessed as concentration required for 50% hemolytic inhibition by classic pathway preincubated for 10 mins with guinea pig serum followed by erythrocyte addition measured after 30 mins by spectrophotometer; assay type: functional, Ovis aries
Erythrocyte [2] = assay: Anticomplement activity in New Zealand White rabbit erythrocytes assessed as concentration required for 50% hemolytic inhibition by alternative pathway preincubated for 10 mins with normal human serum followed by erythrocyte addition measured after 30 mins by spectrophotometer; assay type: functional, Oryctolagus cuniculus
Erythrocyte [3] = assay: Anticomplement activity in sheep erythrocytes assessed as inhibition of hemolysis by classical pathway after 30 mins of compound treatment in normal human serum with C1q-depleted sera; assay type: functional, cell-based; details: Ovis aries
Erythrocyte [4] = assay: Anticomplement activity in sheep erythrocytes assessed as inhibition of hemolysis by classical pathway after 30 mins of compound treatment in normal human serum with C2-depleted sera; assay type: functional, cell-based; details: Ovis aries
Erythrocyte [5] = assay: Anticomplement activity in sheep erythrocytes assessed as inhibition of hemolysis by classical pathway after 30 mins of compound treatment in normal human serum with C5-depleted sera; assay type: functional, cell-based; details: Ovis aries
Erythrocyte [6] = assay: Anticomplement activity in sheep erythrocytes assessed as inhibition of hemolysis by classical pathway after 30 mins of compound treatment in normal human serum with C3-depleted sera; assay type: functional, cell-based; details: Ovis aries
Erythrocyte [7] = assay: Anticomplement activity in sheep erythrocytes assessed as inhibition of hemolysis by classical pathway after 30 mins of compound treatment in normal human serum with C4-depleted sera; assay type: functional, cell-based; details: Ovis aries
Erythrocyte [8] = assay: Anticomplement activity in sheep erythrocytes assessed as inhibition of hemolysis by classical pathway after 30 mins of compound treatment in normal human serum with C9-depleted sera; assay type: functional, cell-based; details: Ovis aries

With CC1(C)CC[C@]2(C(=O)O)CC[C@]3(COC(=O)/C=C/c4ccc(O)cc4)C(=CC[C@@H]4[C@@]5(C)CC[C@H](OC(=O)/C=C/c6ccc(O)cc6)C(C)(C)[C@@H]5CC[C@]43C)[C@@H]2C1 the Activity (Erythrocyte [1]) was 0.072 mg/mL, the Activity (Erythrocyte [2]) was 0.159 mg/mL and the Activity (Erythrocyte [3]) was “Active”. The Activity (Erythrocyte [4]) was “inactive”, the Activity (Erythrocyte [5]) was “Active” and the Activity (Erythrocyte [6]) was “Active”. For the same molecule, the Activity (Erythrocyte [7]) was “Active” and the Activity (Erythrocyte [8]) was “inactive”.
With C=C1[C@@H](O)[C@H](O)C[C@]2(C)[C@H]3CC=C4[C@@H]5CC(C)(C)CC[C@]5(C(=O)O)CC[C@@]4(C)[C@]3(C)CC[C@@H]12 the Activity (Erythrocyte [1]) was 0.09 mg/mL, the Activity (Erythrocyte [2]) was 0.308 mg/mL and the Activity (Erythrocyte [3]) was “Active”. The Activity (Erythrocyte [4]) was “Active” and the Activity (Erythrocyte [8]) was “Active”.
